Reference: patent US10358469B2, “Methods and pharmaceutical compositions for the treatment of cancer” (INSERM (INSTITUT NATIONAL DE LA SANTÉ ET DE LA RECHERCHE …, priority 2014, dated 2019)

Experiments:
[1] = system: solid tumor cell lines; test: Cell viability (MTT) of an array of solid tumor cell lines under low serum; format: cell-based; conditions: increasing concentrations, 24 hours, low serum conditions, FIG. 1B
Protocol: (A) Karpas 1106, SU-DHL-5, SeAx and HUT-78 cells were plated at a densities of 6×10^3 in 96 well plates (100 μL total volume per well) and treated for 24 hours in a 37° C. incubator (5% CO2) with increasing concentrations of the Antp-AAC-11-LZ (363-399). 20 μL MTS reagent was then added to each well and plates were incubated for an additional 4 hours. Absorbance was measured at 490 nm using a 96-well plate reader. The extent to which the Antp-AAC-11-LZ (363-399) peptide inhibited cell proliferation was calculated as a percentage of the absorbance in each well containing the Antp-AAC-11-LZ (363-399) peptide relative to wells containing no peptide (negative control). […]
Viability of cells cultured in the 96-well culture plates was assessed by measuring mitochondrial dehydrogenase activity, using the colorimetric CellTiter 96® AQueous One Solution Cell Proliferation Assay (Promega), according to the manufacturer′ instructions. […] The color can then be quantified using a simple colorimetric assay. The results are read on a multiwall scanning spectrophotometer (ELISA reader).
The inventors evaluated the capacity of the Antp-AAC-11-LZ (363-399) peptide to induce cell death a panel of hematologic and solid tumor cell lines, both P53 positive and P53 negative, derived from different tissues of origin, under low serum conditions (0.5-5%). […]

[2] = system: D3H2LN cells; test: Transwell Boyden chamber migration assay, D3H2LN cells; format: cell-based; conditions: 2 μM, toward 10% FBS, 12 h, FIG. 7A
Protocol: FIG. 7: Antp-AAC-11-LZ (363-399) peptide inhibits cell migration and invasion. (A) D3H2LN cells were added to the upper well of modified Boyden chamber (transwell) plates with a vehicle or with either 2 μM of the Antp-AAC-11-LZ (363-399) peptide or the Antp-only peptide and subjected to a transwell migration assay as described under Materials and methods. The cells were allowed to migrate toward 10% FBS for 12 […]h. Triplicate wells were used for each of three independent experiments. The results are expressed relative to the migration of the untreated cells (=100%). Column: Mean of three experiments. Bar: s.e. P-value was determined by Student's t-test (*P<0.01). (B) D3H2LN cells were seeded in a Matrigel-coated Boyden chamber with a vehicle or with either 2 μM of the Antp-AAC-11-LZ (363-399) peptide or the Antp-only peptide and subjected to a transwell migration assay as described under Materials and methods. The cells were allowed to migrate toward 10% FBS for 24 […]h. Triplicate wells were used for each of three independent experiments. The results are expressed relative to the migration of the untreated cells (=100%). Column: Mean of three experiments. Bar: s.e. P-value was determined by Student's t-test (*P<0.01) […]

Ac-RQIKIWFKKQNRRMKWKKAKLNAEKLKDFKIRLQYFARGLQVYIRQLRLALQGKT-NH2 [Antp-AAC-11-LZ (363-399)]
cell viability loss of the cancer cell lines [1]: marked cell viability loss | cell migration [2]: substantially decreased
